The values that follow are results of earlier work, collected in patent publication US8097743B2, “Process for manufacture of blocked mercaptosilane coupling agents” (Momentive Performance Materials Inc., priority 2002, dated 2012).

The conditions of this series: cited from earlier work.

Consider `CCN(CC)CC` [TEA, triethylamine], for which the “Miscibility with water (classification)” value (below 18.7° C.) was “completely miscible”.
On to `CCCN(CCC)CCC` [TNPA, tri-n-propylamine], for which the “Solubility in water (classification)” value is on record as “very slightly soluble”.
